US9079821B2, “Quinone based nitric oxide donating compounds” (NICOX S.A., priority 2011, dated 2015)

Assays:
[1] = test system: isolated aortas from rats; experiment: Ex vivo tolerance evaluation (vascular response of isolated aortas from treated rats); type: in vivo, rat; conditions: for EC50 at 100 mg/kg: Rattus norvegicus, vascular response to Compound (6), 3 h after last administration
Experimental: Thoracic aortas from male New Zealand rabbits or male Sprague Dawley (SD) were used. The aortas were placed immediately in Krebs-HEPES buffer (pH 7.4; composition mM: NaCl 130.0, KCl 3.7, NaHCO3 14.9, KH2PO4 1.2, MgSO4.7H2O 1.2, Glucose 11.0, HEPES 10.0, CaCl2.2H2O 1.6). Connective tissue was removed and aortas were cut into ring segments (4-5 mm in length). Each ring was placed in a 5 mL tissue bath filled with Krebs-HEPES buffer (37° C.) aerated with 95% O2 and 5% CO2 and was attached to a force transducer (Grass FT03), connected to a BIOPAC MP150 System for measurement of the isometric tension. Preparations were allowed to equilibrate for 1 h at a resting tension of 2 g for rabbit aortas and 1 g for rat aortas with changes of the buffer every 15 min. Then the rings were stimulated by exposure to 90 mM KCl (3 times) with intervening washings.
Rat aorta. After equilibration, rat aortas were precontracted with KCl (90 mM) and, when the contraction was stable, a cumulative concentration-response curve to acetylcholine (ACh, 0.01-100 μM) was added. After washout, the rings were precontracted again with KCl (90 mM). When a steady-state level of contraction was obtained, a cumulative concentration-response curve to the tested compounds (0.01-100 μM) was obtained.
Data analysis. Results are given as mean±SEM. Vascular responses are expressed as percentage relaxation and plotted vs concentration. The sensitivity of isolated aorta to different vasodilators is expressed as the concentration that elicited 50% of the maximal responses (EC50). Responses are quantified in terms of EC50 and Emax (maximal vasodilating effect) values, obtained from the concentration-response curve by nonlinear curve fitting, using GraphPad software.
Tolerance to nitrate was further investigated assessing the vascular effects of Compound (6) following repeated treatment compared with 5-ISMN. The vascular response to the compound itself was assessed on isolated aortas from rats orally treated for 5 days with Compound (6) (100 mg/kg). The vascular response was performed as described in Example 6.
Vascular responses were performed 1 h (ISMN) or 3 h (Compound (6)) after the last administration, the concentrations of tested compound that elicited the 50% of the maximal responses (EC50) are shown in Table 4.

[2] = test system: mdx mice; experiment: Mouse model of Duchenne Muscle Distrophy (whole body tension in mdx mice); type: in vivo; conditions: for WBT5: average of top 5 FPTs divided by body weight; for WBT10: average of top 10 FPTs divided by body weight
Experimental: The effects of the compound (6) on muscle function were assessed in mdx mice, which are genetically and biochemically homologous to human DMD. Animals of 4 weeks of age were treated for 3 months with the compound (6) at two different doses (30 and 100 mg/kg), which was incorporated into the diet. Control mdx and wild-type mice were fed the same diet without any drug. To determine if treatment with the compound would ameliorate muscle function in mdx mice, we evaluated the whole body tension which is a measure of the total muscle force. Indeed, this assay, well described in the Treat-NMD standard procedures for the preclinical studies in DMD, is used to determine the ability of mice to exert tension in a pulling maneuver that is elicited by stroking the tail. It is thought to reflect the maximal acute phasic force of the mouse can achieve to escape a potentially harmful event. Briefly, each mouse was placed at the entry of a polyvinyl chloride tube that had been lined interiorly with an aluminum screen, and the tail of the mouse was connected to a tension transducer. Forward pulling movements were elicited by a standardized stroke of the tail with serrated forceps and the corresponding forward pulling tensions (FPTs) were recorded using a Biopac recording system. Between 15 and 20 FPTs were generally recorded during each session. The whole body tension 5 (WBT5) and WBT10 were obtained by dividing the average of the top 5 or top 10 FPTs, respectively, by the body weight.
Table.1 Whole Body Tension (WBT) measured in wild-type and mdx control mice and in mdx mice treated with two different doses of NCX 1443 (30 and 100 mg/kg) incorporated in the diet. Data are presented as mean±standard deviation. For each group, n=8-10 mice. *p<0.05 vs mdx vehicle, ^###p<0.001 vs wild-type (wt) mice, 1-way ANOVA followed by Tuckey post-hoc test.

[3] = 30 mg/kg/day in the diet for 3 months
[4] = 100 mg/kg/day in the diet for 3 months

`COC1=C(OC)C(=O)C(CCCCCCCCCCO[N+](=O)[O-])=C(C)C1=O` [Compound (6), 10-(4,5-dimethoxy-2-methyl-3,6-dioxocyclohexa-1,4-dienyl)decyl nitrate] was tested, and the EC50 at 100 mg/kg ([1]; acute, aortas of rats given Compound (6) 100 mg/kg) was 110 ± 20 nM, the EC50 at 100 mg/kg ([1]; repeated (5 days oral) Compound (6) 100 mg/kg) was 180 ± 20 nM and the “vascular response of aortas from treated animals vs vehicle arteries, in words” value ([1]; compound (6) 100 mg/kg oral, 5 days) was “showed the same sensitivity to Compound (6) as those arteries of animals treated only with vehicle”. The WBT5 [2, 3] was 3.6 ± 0.7^###, the WBT10 [2, 3] was 3.0 ± 0.7^### and the WBT5 [2, 4] was 4.1 ± 0.8^###*. The WBT10 [2, 4] was 3.4 ± 0.6^###* and the “effect on muscle function, in words” value ([2]; 30 and 100 mg/kg in the diet for 3 months) was “showed a dose-response trend in improving muscle function reaching a significant effect at the dose of 100 mg/kg”.
